Results as given in ChEMBL document CHEMBL1201862, “PubChem BioAssay data set” (2004).
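Cells were grown in 96-well plates and exposed to each compound for 48 hours at five concentrations; endpoints were interpolated linearly between bracketing concentrations, or set to the highest concentration if not reached. The concentration for 50% growth inhibition is given as GI50.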 The source made the active and inactive calls. Rule as the data show it: active = GI50 up to about 1.1 µM and inactive = higher.

Columns and labels:
Experiment in all cases: growth of human tumour cells (NCI), 48 h
[1] = tested on: MDA-MB-435
[2] = tested on: T47D
[3] = tested on: MDA-N
[4] = tested on: DU-145
[5] = tested on: BT-549
[6] = tested on: Hs-578T
[7] = tested on: PC-3
[8] = tested on: RXF 631
[9] = tested on: 786-0

Measured: GI50

COC(=O)/C=C\n1ncc(=O)[nH]c1=O
inactive: [1] 99.5 µM | [2] > 100 µM | [3] > 100 µM | [4] > 100 µM | [5] > 100 µM | [6] > 100 µM | [7] > 100 µM

Nc1n[nH]c(Nc2ccc(Cl)cc2)c1P(=O)(c1ccccc1)c1ccccc1
inactive: [1] 19.1 µM | [2] 58.7 µM | [3] 11 µM | [4] 37.7 µM | [6] 14.8 µM | [7] 19.9 µM

C=C(C)C1Cc2c(c3ccccc3n(C)c2=O)O1 (stereo not drawn)
inactive: [8] > 100 µM

O=C(Nc1ccccc1)N1CCN(C(=O)Nc2ccccc2)C1=S
inactive: [1] > 100 µM | [2] 40.9 µM | [3] > 100 µM | [4] > 100 µM | [9] 37 µM | [5] 30.4 µM | [6] 35.9 µM

N#CCCN(CCC#N)c1ccc(/C=C(/NC(=O)Nc2ccccc2Cl)NC(=O)c2cc([N+](=O)[O-])ccc2Cl)cc1
inactive: [8] > 100 µM

c1ccc2c(CCNC3=NCCO3)cccc2c1
inactive: [1] > 10 µM | [2] > 10 µM | [3] > 10 µM | [4] > 10 µM | [6] > 10 µM | [7] > 10 µM
